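Protocol summary: plate cells (96-well), add compound at 5 concentrations, incubate 48 h, interpolate endpoints linearly. TGI: concentration producing complete growth inhibition.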
Assays:
Test in all cases: growth of human tumour cells (NCI), 48 h
SK-MEL-5 melanoma = test system: SK-MEL-5 melanoma
KM12 colon = test system: KM12 colon
PC-3 prostate = test system: PC-3 prostate
SF-268 CNS = test system: SF-268 CNS
UACC-257 melanoma = test system: UACC-257 melanoma
SK-OV-3 ovarian = test system: SK-OV-3 ovarian
DU-145 prostate = test system: DU-145 prostate
A549 NSCLC = test system: A549 NSCLC
EKVX NSCLC = test system: EKVX NSCLC
OVCAR-4 ovarian = test system: OVCAR-4 ovarian
MDA-MB-231 breast = test system: MDA-MB-231 breast
SK-MEL-2 melanoma = test system: SK-MEL-2 melanoma
OVCAR-5 ovarian = test system: OVCAR-5 ovarian
HS 578T breast = test system: HS 578T breast
ACHN renal = test system: ACHN renal
NCI-H226 lung = test system: NCI-H226 lung
M14 melanoma = test system: M14 melanoma
UACC-62 melanoma = test system: UACC-62 melanoma
NCI/ADR-RES ovarian = test system: NCI/ADR-RES ovarian
HL-60(TB) leukemia = test system: HL-60(TB) leukemia

For CCOP(=O)(OCC)c1c(C(=O)OC)cc(=O)[nH]c1-c1ccc(C)cc1, the TGI (SK-MEL-5 melanoma) was 28.8 µM, the TGI (KM12 colon) was 33.6 µM and the TGI (PC-3 prostate) was 34.2 µM. For the same molecule, the TGI (SF-268 CNS) was > 52.1 µM, the TGI (UACC-257 melanoma) was 30.1 µM and the TGI (SK-OV-3 ovarian) was 49.4 µM. For the same molecule, the TGI (DU-145 prostate) was 17.5 µM, the TGI (A549 NSCLC) was 31.5 µM and the TGI (EKVX NSCLC) was 17 µM. For the same molecule, the TGI (OVCAR-4 ovarian) was 22.5 µM, the TGI (MDA-MB-231 breast) was 76.3 µM and the TGI (SK-MEL-2 melanoma) was 32.4 µM. For the same molecule, the TGI (OVCAR-5 ovarian) was 20.5 µM, the TGI (HS 578T breast) was 49.1 µM and the TGI (ACHN renal) was 9.45 µM. The TGI (NCI-H226 lung) was 29.6 µM, the TGI (M14 melanoma) was 27.8 µM and the TGI (UACC-62 melanoma) was 20.4 µM. The TGI (NCI/ADR-RES ovarian) was > 57.5 µM.

In the case of CCOC(=O)/C1=C(\C)N(c2ccc(C)cc2)C(=O)c2ccccc2C(=O)c2c(OC(C)=O)ccc(OC(C)=O)c21, the TGI (SK-MEL-5 melanoma) is reported as > 100 µM, the TGI (KM12 colon) is reported as 40.6 µM and the TGI (PC-3 prostate) is reported as > 100 µM. The TGI (SF-268 CNS) was > 100 µM, the TGI (UACC-257 melanoma) was 80.7 µM and the TGI (SK-OV-3 ovarian) was 70.9 µM. The TGI (DU-145 prostate) was > 100 µM, the TGI (A549 NSCLC) was > 100 µM and the TGI (HL-60(TB) leukemia) was 54.4 µM. The TGI (OVCAR-4 ovarian) was 54.2 µM, the TGI (MDA-MB-231 breast) was 83.9 µM and the TGI (SK-MEL-2 melanoma) was 82.7 µM. The TGI (OVCAR-5 ovarian) was > 100 µM, the TGI (HS 578T breast) was 48.2 µM and the TGI (ACHN renal) was 77.2 µM. The TGI (NCI-H226 lung) was 65.7 µM, the TGI (M14 melanoma) was 54.3 µM and the TGI (UACC-62 melanoma) was 42.1 µM. It also gave a TGI (NCI/ADR-RES ovarian) of 53.9 µM.

For OCC1OC(n2cnc3c(Cl)nc(Nc4ccccc4)nc32)CC1O (configuration not stated), the TGI (SK-MEL-5 melanoma) was > 100 µM, the TGI (KM12 colon) was > 100 µM and the TGI (PC-3 prostate) was > 100 µM. The TGI (SF-268 CNS) was > 100 µM, the TGI (UACC-257 melanoma) was > 100 µM and the TGI (SK-OV-3 ovarian) was > 100 µM. The TGI (DU-145 prostate) was > 100 µM, the TGI (A549 NSCLC) was 36.4 µM and the TGI (EKVX NSCLC) was 8.15 µM. The TGI (OVCAR-4 ovarian) was > 100 µM, the TGI (MDA-MB-231 breast) was > 100 µM and the TGI (SK-MEL-2 melanoma) was > 100 µM. The TGI (OVCAR-5 ovarian) was > 100 µM, the TGI (HS 578T breast) was 90.1 µM and the TGI (ACHN renal) was 32.1 µM. The TGI (NCI-H226 lung) was > 100 µM, the TGI (M14 melanoma) was > 100 µM and the TGI (UACC-62 melanoma) was > 100 µM. For the same molecule, the TGI (NCI/ADR-RES ovarian) was > 100 µM.
